Patent publication US12312301B2, “Organosulfur compounds” (MARIPOSA THERAPEUTICS LTD., priority 2018, dated 2025)

Assays:
Format in all cases: cell-based
[1] = test system: Pseudomonas aeruginosa biofilm formation; experiment: Minimum Biofilm Inhibition Concentration (MBIC) assay, crystal violet biofilm mass; conditions: for P. aeruginosa MBIC: % of Ajoene positive control IC50: IC50 relative to ajoene run in the same experiment, <100% = more effective than ajoene
Protocol: (§1) Compounds were assayed for their ability to inhibit S. aureus or P. aeruginosa biofilm formation as follows. All compounds were prepared as a 30 mM stock in DMSO and diluted in TSB to 48 μM (S. aureus) or 144 μM (P. aeruginosa). The compounds were further serially diluted two-fold from 48 μM to 0.75 μM (S. aureus) or 144 μM to 2.3 μM (P. aeruginosa) and added to a 96-well plate at 100 μl per well. Overnight cultures of bacteria were diluted to an OD600=0.07 in fresh TSB and 100 μl of the diluted bacterial culture was added to the compound containing wells. The bacteria were incubated in the presence of the compounds overnight at 37° C. After incubation, the planktonic bacteria were removed by three washes using H2O and the remaining biofilm was stained using crystal violet and quantified photometrically at A570. Absorbances corresponding to biofilm mass were plotted versus compound concentration and IC50 values were calculated. Reference: O'Toole GA. Microtiter Dish Biofilm Formation Assay. J. Vis. Exp. (2011).
(§2) MBIC assays of the compounds are carried out alongside ajoene for reference and standardization. The 1050 of ajoene against S. aureus and P. aeruginosa is well-defined and reproducible allowing ajoene to serve as an effective control for the experiment. As such, the 1050 calculated for the tested compounds are compared to the 1050 of ajoene in every experiment and are therefore represented as % of ajoene.
(§3) The compound and the other biofilm inhibitory agents were assayed for their inhibitory activity using the MBIC method as described in Example 4. Absorbances corresponding to biofilm mass were plotted versus concentration of compound and other biofilm inhibitory agents.

[2] = test system: Staphylococcus aureus biofilm formation; experiment: as above; conditions: for S. aureus MBIC: % of Ajoene positive control IC50: IC50 relative to ajoene run in the same experiment, <100% = more effective than ajoene
Protocol: as §1, §2, §3

HaCaT cells = experiment: Scratch closure test; conditions: 5 μM, HaCaT monolayer; for scratch closure observed at 20 h: in line with EGF positive control; for scratch closure compared to vehicle control: P<0.0001 vs 1% DMSO vehicle
Protocol: HaCaT cells (aneuploidy immortal keratinocyte cell line) were seeded in a 96-well plate at a cell density of 5×10^4 cells per well and incubated overnight at 37° C., 5% CO2 and 95% humidity. Test and control compounds were prepared in 1% DMSO and diluted to a concentration of 5 μM in pre-warmed HaCaT cell media. Cells were washed with pre-warmed PBS and the monolayers mechanically injured by introducing a vertical cell-free area in each individual well, and washed again. Test and control compounds were added and all wells microscopically imaged for time point 0. Cells were incubated as described above and imaged after 20 hours. All conditions were tested with an N of 4 replicates. Scratch closure was analysed using ImageJ software and standard deviation calculated. Scratch closure area reduction was plotted using GraphPrism 8 software.

Row | Compound | P. aeruginosa MBIC: % of Ajoene positive control IC50 [1] | S. aureus MBIC: % of Ajoene positive control IC50 [2] | other results
1 | C=CCSSC=CCS(=O)(=O)Cc1ccc(F)cc1 | 49.2 % of Ajoene | 7 % of Ajoene | –
2 | COC(=O)c1ccc(CSS/C=C/CS(=O)(=O)Cc2ccc(C(F)(F)F)cc2)cc1 | 34.7 % of Ajoene | 20.5 % of Ajoene | –
3 | O=S(=O)(CC=CSSCC1CC1)CC1CC1 | 57.5 % of Ajoene | 69.18 % of Ajoene | –
4 | C=CCSSC=CCS(=O)(=O)Cc1cccs1 | 29.7 % of Ajoene | 52 % of Ajoene | –
5 | C=CCSS/C=C/C[S+]([O-])CC=C (stereo not shown) [E-ajoene] | – | – | scratch closure observed at 20 h (HaCaT cells): complete scratch closure; scratch closure compared to vehicle control (HaCaT cells): enhanced scratch closure
6 | COc1ccc(CSS/C=C\CS(=O)(=O)Cc2ccc(C(F)(F)F)cc2)cc1 [Test compound 3] | – | – | scratch closure observed at 20 h (HaCaT cells): complete scratch closure; scratch closure compared to vehicle control (HaCaT cells): enhanced scratch closure
7 | C[S+]([O-])CCCCN=C=S (stereo not shown) [sulforaphane] | – | – | scratch closure observed at 20 h (HaCaT cells): complete scratch closure; scratch closure compared to vehicle control (HaCaT cells): enhanced scratch closure
8 | O=S(=O)(CC=CSSCc1ccc(C(F)(F)F)cc1)Cc1ccc(C(F)(F)F)cc1 [test compound 1, 1-(trifluoromethyl)-4-{[(3-{[4-(trifluoromethyl)phenyl]methanesulfonyl}prop-1-en-1-yl)disulfanyl]methyl}benzene] | – | – | IC50 against Pseudomonas aeruginosa biofilm compared to ajoene ([1]; Example 4, FIG. 2, 144 μM to 2.3 μM, overnight 37° C.): lower 1050 than ajoene; IC50 against Staphylococcus aureus biofilm compared to ajoene ([2]; Example 4, FIG. 1, 48 μM to 0.75 μM, overnight 37° C.): lower 1050 than ajoene
9 | C=CCSSC=CCS(=O)(=O)Cc1ccc(C(F)(F)F)cc1 [test compound 2, 1-{[-3-(prop-2-en-1-yldisulfanyl)prop-2-ene-1-sulfonyl]methyl}-4-(trifluoromethyl)benzene] | – | – | inhibitory activity on P. aeruginosa biofilm compared to ajoene, cysteamine, gallium nitrate, HDMF, and C-30 ([1]; Example 6, FIG. 3): improved inhibitory activity; inhibitory activity on S. aureus biofilm compared to ajoene, cysteamine, gallium nitrate, HDMF, and C-30 ([2]; Example 6, FIG. 4): improved inhibitory activity

The next lines start with results.

Row | P. aeruginosa MBIC: % of Ajoene positive control IC50 [1] | S. aureus MBIC: % of Ajoene positive control IC50 [2] | Compound | other results
10 | 87 % of Ajoene | 4 % of Ajoene | C=CCSSC=CCS(=O)(=O)Cc1ccc(OC)cc1 | –
11 | 82 % of Ajoene | 23 % of Ajoene | C=CCSSC=CCS(=O)(=O)Cc1ccc(S(C)(=O)=O)cc1 | –
12 | 56 % of Ajoene | 75 % of Ajoene | COc1ccc(CSSC=CCS(=O)(=O)Cc2ccccc2)cc1 | –
13 | 27.8 % of Ajoene | 8.2 % of Ajoene | COc1ccc(CSS/C=C/CS(=O)(=O)Cc2ccc(C(F)(F)F)cc2)cc1 | –
14 | 78.7 % of Ajoene | 55.5 % of Ajoene | C=CCSS/C=C/CS(=O)(=O)Cc1ccc(C(F)(F)F)cc1 | –
15 | 13.9 % of Ajoene | 51 % of Ajoene | COc1ccccc1CSSC=CCS(=O)(=O)Cc1ccc(C(F)(F)F)cc1 | –
16 | 65.3 % of Ajoene | 20 % of Ajoene | COc1cccc(CSSC=CCS(=O)(=O)Cc2ccc(C(F)(F)F)cc2)c1 | –
17 | 79 % of Ajoene | 24 % of Ajoene | COc1ccc(CSSC=CCS(=O)(=O)Cc2ccc(C(F)(F)F)cc2)cc1 | –
18 | 11.7 % of Ajoene | 21.9 % of Ajoene | C=CCSSC=CCS(=O)(=O)Cc1ccco1 | –
19 | 45.3 % of Ajoene | 28.6 % of Ajoene | O=S(=O)(CC=CSSCc1ccc(C(F)(F)F)cc1)Cc1ccc(C(F)(F)F)cc1 [drawing 50] | –
20 | 42.75 % of Ajoene | 38.6 % of Ajoene | C=CCSSC=CCS(=O)(=O)Cc1ccc(C(F)(F)F)cc1 [drawing 51] | –
